According to PubChem BioAssay (NCI):
Where “and” joins values, the source holds several entries; their conditions need not be identical. Equal entries are not always repeated.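 Growth conditions: 96-well plates. Treatment: test compound, 48 hours, 5 concentrations. Analysis: linear interpolation between bracketing concentrations; unreached endpoints set to highest concentration. GI50 marks 50% less growth. Definition used: TGI = concentration required for complete inhibition of growth.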

What was measured:
Assay in all cases: NCI-60 cell line screen, 48 h
K-562 leukemia = tested on: K-562 leukemia
MDA-MB-435 = tested on: MDA-MB-435
SR leukemia = tested on: SR leukemia
MCF7 breast = tested on: MCF7 breast
SNB-75 CNS = tested on: SNB-75 CNS
SF-539 CNS = tested on: SF-539 CNS
OVCAR-4 ovarian = tested on: OVCAR-4 ovarian
NCI-H460 lung = tested on: NCI-H460 lung
A498 renal = tested on: A498 renal
COLO 205 colon = tested on: COLO 205 colon

Row | Structure (SMILES) | GI50 (K-562 leukemia) | TGI (K-562 leukemia) | GI50 (MDA-MB-435) | TGI (MDA-MB-435) | GI50 (SR leukemia) [µM] | TGI (SR leukemia) | GI50 (MCF7 breast) | TGI (MCF7 breast) | GI50 (SNB-75 CNS) | TGI (SNB-75 CNS) | GI50 (SF-539 CNS) | TGI (SF-539 CNS) | GI50 (OVCAR-4 ovarian) | TGI (OVCAR-4 ovarian) | GI50 (NCI-H460 lung) | TGI (NCI-H460 lung) | GI50 (A498 renal) | TGI (A498 renal) | GI50 (COLO 205 colon) | TGI (COLO 205 colon)
1 | c1ccc2nc(Cn3c[n+](Cc4ccc5ccccc5n4)c4ccccc43)ccc2c1 | 1.25 µM | 11.8 µM | 1.63 µM | 4.37 µM | 1.69 | 5.48 µM | 1.91 µM | 11.5 µM | 2.09 µM | 9.13 µM | 2.61 µM | 12 µM | 1.49 µM | 11.6 µM | 2.8 µM | 12.3 µM | 2.24 µM | 10.2 µM | 1.37 µM | 3.22 µM
2 | CN(C)c1ccc2nc3ccc(=[N+](C)C)cc-3oc2c1 | 1.58 µM | 71.9 µM | 2.73 µM | 15.8 µM | 2.06 | 23.8 µM | 0.368 µM | 2.3 µM | 2.63 µM | 17.1 µM | 0.707 µM | 15.4 µM |  |  | 2.82 µM | > 100 µM | 13.7 µM | 41.9 µM | 0.391 µM | 1.68 µM
3 | CC1=CC(=O)c2c(O)cccc2C1=O |  | 2.52 µM |  | 3.26 µM |  | 4.95 µM |  | 3.9 µM |  | 16.9 µM |  | 3.92 µM |  | 3.26 µM |  | > 26.1 µM |  | 13.2 µM |  | 3.39 µM
4 | C=C(C)[C@@H]1CC=C(CO)CC1 | > 10 µM | > 10 µM and 1140 µM |  | > 10 µM | > 10 | > 10 µM and 1080 µM |  | > 10 µM | > 10 µM | > 10 µM and 374 µM | > 10 µM | > 10 µM and 1120 µM | > 10 µM | > 10 µM and 1130 µM | > 10 µM | > 10 µM and 1260 µM | > 10 µM | > 10 µM and 1170 µM | > 10 µM | > 10 µM and 768 µM
5 | N=C(N)c1nn(C2OC(CO)C(O)C2O)c2nc[nH]c(=O)c12 (stereo unspecified) | 0.367 µM | 3.63 µM | 0.311 µM | 1.16 µM | 0.34 |  | 0.482 µM | 5.09 µM | 1.48 µM | 7.27 µM | 0.367 µM | 1.75 µM | 0.647 µM | 7.84 µM | 0.487 µM | 9.09 µM | 1.46 µM | 4.74 µM | 1.01 µM | 3.26 µM
6 | O=C(Nc1cccc(Cl)c1)Nc1ncc(CCNc2ncnc3ccsc23)s1 | 3.54 µM and 2.4 µM | > 100 µM | 1.99 µM and 1.89 µM | 14.2 µM and > 10 µM |  | 20.8 µM and > 10 µM | 1.17 µM and 1.31 µM | 15 µM and > 10 µM | 1.62 µM and 1.02 µM | 19.5 µM and > 10 µM | 0.635 µM and 0.53 µM | 16.9 µM and > 10 µM | 2.1 µM and 2.93 µM | 11.9 µM and > 10 µM | 0.114 µM and 0.991 µM | > 72.2 µM | 2.51 µM and 1.17 µM | 17.9 µM and > 10 µM | < 0.0105 µM and 0.00997 µM | 8.36 µM and 3.88 µM
7 | O=C(CCl)c1ccc([N+](=O)[O-])o1 | 1.18 µM | > 19.8 µM | 1.89 µM | 4.22 µM | 0.406 | 1.81 µM | 1.87 µM | 5.82 µM | 3.06 µM | 9.16 µM | 2.28 µM | 5.03 µM | 1.73 µM | 3.32 µM | 10.3 µM | 28.1 µM | 13.6 µM | 27.5 µM | 1.73 µM | 3.72 µM
8 | O=C(O)CSSCC(=O)O |  | > 100 µM |  | > 100 µM |  | > 100 µM |  | > 100 µM |  | > 100 µM |  | > 100 µM |  | > 100 µM |  | > 100 µM |  | > 100 µM |  | > 100 µM
9 | CN(C)CCCNC(=O)c1cc(NC(=O)CCNS(=O)(=O)c2ccc3c(c2)C(=O)c2ccccc2C3=O)cn1C | > 100 µM | > 100 µM | > 100 µM | > 100 µM | > 100 | > 100 µM | > 100 µM | > 100 µM |  |  | > 100 µM | > 100 µM |  |  | > 100 µM | > 100 µM | > 100 µM | > 100 µM | > 100 µM | > 100 µM
10 | CC12CCC=CC1CCC1C2CCC2(C)C(c3ccc(=O)oc3)CCC12O (stereo unspecified) | 0.0587 µM |  | 0.108 µM | 0.528 µM | 0.0311 | 0.11 µM | 0.0766 µM | 1.18 µM | 0.0282 µM | 0.164 µM | 0.0531 µM | 0.18 µM | 0.167 µM | 0.641 µM |  |  | 0.0496 µM | 0.457 µM | 0.333 µM | 1.56 µM
11 | CC[C@H](Nc1nc(N)nc(C)c1C#N)c1nc2cccc(CN(C)c3ncc(C(=O)NO)cn3)c2c(=O)n1-c1ccccc1 | 0.39 µM | > 50 µM | 0.617 µM | 2.26 µM | 0.396 | > 50 µM | 0.915 µM | > 24.5 µM | 0.244 µM | 1.82 µM | 0.591 µM | 6.12 µM | 1.01 µM | 6.56 µM | 1.15 µM | 11.2 µM | 0.295 µM | 1.13 µM |  | 
12 | Nc1ncnc2sc(=S)c3c(c12)CCC3 | 36.1 µM | > 100 µM | 46.9 µM | > 100 µM |  |  | 25.3 µM | 92.8 µM | 88.7 µM | > 100 µM | 17 µM | 52.8 µM | 69.8 µM | > 100 µM | 35.1 µM | > 100 µM | 28.2 µM | 79.5 µM | 25.1 µM | 62.6 µM
13 | COc1ccc(C(=O)/C=C/c2ccc(Cl)cc2)cc1S(=O)(=O)Nc1c(N)nc(SC)[nH]c1=O | 2.77 µM | > 100 µM | 2.95 µM | 10.7 µM | 3.57 | > 100 µM | 1.97 µM | 8.25 µM |  |  | 2.1 µM | 5 µM | 4.49 µM | 14.9 µM | 2.49 µM | 6.29 µM | 10.6 µM | 22.4 µM | 1.76 µM | 3.42 µM
14 | Cc1ccc2[nH]c(C(=O)NN3C(=O)CSC34CCCCC4C)c(-c3ccccc3)c2c1 (stereo unspecified) | 10.8 µM | 42.1 µM | 17.9 µM | 34.7 µM |  |  | 14.9 µM | 39.2 µM | 19.6 µM | 38.1 µM | 19.5 µM | 38.4 µM | 16.5 µM | 34.2 µM | 18.2 µM | 43.7 µM | 17.6 µM | 34.5 µM | 20.4 µM | 48.9 µM
15 | Cn1c(=O)c2[nH]c(/N=N/N3CCN(CCO)CC3)nc2n(C)c1=O |  | > 100 µM |  | > 100 µM |  | > 100 µM |  | > 100 µM |  |  |  | > 100 µM |  | > 100 µM |  | > 100 µM |  | > 100 µM |  | > 100 µM
16 | CC(C)(C(=O)NN)c1ccccc1 |  | > 100 µM |  | > 100 µM |  | > 100 µM |  | > 100 µM |  | > 100 µM |  | > 100 µM |  |  |  | > 100 µM |  | > 100 µM |  | > 100 µM
17 | CCOC(=O)c1c2c(n(CC(C)C)c1C)-c1nc[nH]c1C(=O)C2=O | 6.74 µM | 20.1 µM | 18.2 µM | 32.6 µM | 0.384 | 2.15 µM | 16.3 µM | 29.9 µM |  |  | 14 µM | 26.9 µM | 12.7 µM | 25.3 µM | 16.5 µM | 30.1 µM | 15.6 µM | 29 µM | 18 µM | 32.3 µM
18 | COc1cc(Cn2cc3c(c2)-c2oncc2CC3)cc(OC)c1OC | < 0.0183 µM | > 34.7 µM | < 0.0107 µM | < 0.0225 µM | 0.0286 | > 100 µM | 0.0324 µM | > 100 µM |  |  | 0.0237 µM | 0.0657 µM | 0.152 µM | > 100 µM | 0.034 µM | 1.5 µM | 0.0196 µM | 1.04 µM | 0.0332 µM | 0.0957 µM
19 | N#CC(C#N)=Cc1ccc(-c2ccc(-c3nc4ccccc4s3)cc2)o1 | 27.4 µM | > 100 µM | 25.4 µM | 81.8 µM |  |  | 6.2 µM | > 100 µM | 25.3 µM | 60 µM | 11.2 µM | 26.7 µM | 30.5 µM | > 100 µM | 30.1 µM | > 100 µM | 0.346 µM | 0.985 µM | 20.6 µM | 55.3 µM
20 | O=C(CCN1CCCC1)Nc1ccc2c(NCc3ccc(F)cc3)c3ccccc3nc2c1 |  |  | 0.692 µM | 1.97 µM | 0.349 | 1.72 µM | 0.314 µM | 1.31 µM | 0.506 µM | 1.87 µM | 0.443 µM | 1.63 µM | 0.45 µM | 1.84 µM | 0.336 µM | 1.15 µM | 0.733 µM | 2.26 µM | 0.396 µM | 1.65 µM
21 | O=C1c2ccccc2C(=O)N1CC1(C(=O)O)NCCS1(=O)=O (stereo unspecified) |  | > 100 µM |  | > 100 µM |  | > 100 µM |  | > 100 µM |  |  |  | > 100 µM |  | > 100 µM |  | > 100 µM |  | > 100 µM |  | > 100 µM
22 | COc1cc2nc(Cl)nc(Nc3cccc(C(=O)/C=C/c4ccccc4)c3)c2cc1OC | 1.74 µM | > 100 µM | 3.4 µM | 28.9 µM |  |  | 1.81 µM | > 100 µM | 2.06 µM | 8.61 µM | 3.82 µM | 19.2 µM | 5.5 µM | 33.3 µM | 4.2 µM | > 100 µM | > 25 µM | > 66.5 µM | 11.4 µM | > 100 µM
